Measurements as given in the NIST ThermoML archive (doi:10.1021/je501126j).
± gives the expanded uncertainty stated by the source.

Experiments:
[1] = 101 kPa, Liquid, Vibrating tube method
[2] = wn = mass fraction of the nth substance listed; conditions: 101 kPa, Liquid, Vibrating tube method

CC(O)CN(C)C (stereo not drawn) [1-(dimethylamino)-2-propanol]
[1]
Conditions | mass density [kg/m3]
298.15 K | 845.2 ± 6
303.15 K | 840.4 ± 6
308.15 K | 835.6 ± 6
313.15 K | 830.7 ± 6
318.15 K | 825.9 ± 6
323.15 K | 820.9 ± 6

CC(O)CN(C)C (stereo not drawn) [1-(dimethylamino)-2-propanol] + O
mass density [kg/m3], [2]
Conditions | 298.15 K | 303.15 K | 308.15 K | 313.15 K | 318.15 K | 323.15 K
w1 = 0.1 | 992.5 ± 7.2 | 990.8 ± 7.2 | 988.9 ± 7.3 | 986.7 ± 7.3 | 984.2 ± 7.3 | 982.1 ± 7.3
w1 = 0.2 | 989.5 ± 6.9 | 987.2 ± 6.9 | 984.6 ± 6.9 | 981.9 ± 6.9 | 979 ± 6.9 | 976 ± 7.2
w1 = 0.3 | 984.6 ± 6.7 | 981.4 ± 6.7 | 978 ± 6.7 | 974.5 ± 6.8 | 970.9 ± 6.8 | 967.2 ± 6.8
w1 = 0.4 | 976.7 ± 6.6 | 972.8 ± 6.6 | 968.7 ± 6.6 | 964.6 ± 6.6 | 960.5 ± 6.7 | 956.3 ± 6.6
w1 = 0.5 | 967.2 ± 6.6 | 962.9 ± 6.6 | 958.5 ± 6.6 | 954.1 ± 6.7 | 949.4 ± 6.7 | 944.8 ± 6.7
w1 = 0.55 | 958.7 ± 7 | 954.2 ± 7.2 | 949.7 ± 7.2 | 945 ± 7.2 | 940.4 ± 7.2 | 935.6 ± 7.3
w1 = 0.6 | 948.9 ± 7.1 | 944.2 ± 7.1 | 939.6 ± 7.1 | 934.8 ± 7.1 | 930 ± 7.2 | 925.2 ± 7.2
w1 = 0.71 | 929.1 ± 7.3 | 924.3 ± 7.3 | 919.5 ± 7.3 | 914.7 ± 7.3 | 909.8 ± 7.3 | 904.9 ± 7.3
w1 = 0.81 | 905.6 ± 7.9 | 900.9 ± 8 | 896 ± 8 | 891.1 ± 8 | 886.2 ± 8 | 881.2 ± 8
w1 = 0.91 | 876.5 ± 8.5 | 871.1 ± 8.5 | 866.9 ± 8.5 | 862 ± 8.4 | 857.1 ± 8.4 | 852.1 ± 8.5
w1 = 0.96 | 860.5 ± 9.1 | 855.7 ± 9 | 850.8 ± 9.1 | 846 ± 9.1 | 841 ± 9.1 | 836.1 ± 9.1
w1 = 1 | 845.2 ± 6 | 840.4 ± 6 | 835.6 ± 6 | 830.7 ± 6 | 825.9 ± 6 | 820.9 ± 6
